The source made the active and inactive calls. The rule behind the calls is not given here.
Target: Peptidyl-prolyl cis-trans isomerase FKBP1A (Homo sapiens) (UniProt P62942)
Experiment: small-molecule binding to FKBP12 – biophysical, NMR detection (AID 608)
Settings: purified FKBP12

Sequence of Peptidyl-prolyl cis-trans isomerase FKBP1A (Homo sapiens) (P62942 whole entry, looked up): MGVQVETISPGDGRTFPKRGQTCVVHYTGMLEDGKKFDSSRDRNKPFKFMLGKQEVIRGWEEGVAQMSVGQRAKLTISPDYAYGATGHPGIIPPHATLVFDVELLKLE

SMILES	Kd
O=C1NC(=S)NC(=O)C1=Cc1ccccc1O	> 4 mM (inactive)
C/C=C/c1ccc2c(c1)OCO2	> 4 mM (inactive)
COC(=O)Nc1nnc(-c2ccncc2)s1	> 4 mM (inactive)
OCCNC(=S)Nc1ccc(F)cc1	> 4 mM (inactive)
c1ccc(NCc2nc(-c3ccccc3)no2)cc1	> 4 mM (inactive)
OCC1COc2ccccc2C1 (stereo not drawn)	> 4 mM (inactive)
Cc1nc(-c2ccc(C(=O)N3CCOCC3)cc2)cs1	> 4 mM (inactive)
Cc1cc(N)n(-c2ccccc2)n1	> 4 mM (inactive)
Cc1ccc(C(=O)Nn2cnnc2)c(Cl)c1	> 4 mM (inactive)
CS(=O)(=O)Cc1ccccc1	> 4 mM (inactive)
CC(=O)Oc1cccc2ccc(=O)[nH]c12	> 4 mM (inactive)
O=C(O)c1ccc(CSc2ncn[nH]2)cc1	> 4 mM (inactive)
CC(=O)O[C@H]1CC[C@]2(C)C3CC[C@@]4(C)C(CC5O[C@@]6(CCC(C)CO6)[C@@H](C)C54)C3CC[C@@H]2C1 (stereo partly drawn)	> 4 mM (inactive)
O=C1CNCc2[nH]c3ccccc3c2N1c1ccccc1	> 4 mM (inactive)
O=C(Nc1cccc(Cl)c1Cl)c1ccccc1OCC(=O)N1CCOCC1	> 4 mM (inactive)
COc1ccc(C2(C)NC(=O)NC2=O)cc1 (stereo not drawn)	> 4 mM (inactive)
NCCCCN=C(N)N	> 4 mM (inactive)
O=C(NC1CC1)c1ccccc1[N+](=O)[O-]	> 4 mM (inactive)
O=C(Nc1nnc(-c2ccncc2)o1)c1cccs1	> 4 mM (inactive)
Nc1ccc(N2CCCCC2)cc1	> 4 mM (inactive)
NC(=O)c1cccc2c1OCCO2	> 4 mM (inactive)
Nc1ncnc2c1ncn2CCN1CCOCC1	> 4 mM (inactive)

SMILES	Kd
CNc1nc(OC)nc(N2CCOCC2)n1	> 4 mM (inactive)
CCC(=O)Nc1ccc(-c2nn3c(C)nnc3s2)cc1	> 4 mM (inactive)
O=C1C=C(O)c2ccccc2C1=O	> 4 mM (inactive)
NC(=O)C1(S(=O)(=O)c2ccccc2)CC1	> 4 mM (inactive)
O=C1N/C(=N\c2ccccn2)SC1Cc1ccccc1 (stereo not drawn)	> 4 mM (inactive)
CC(=O)Nn1c(=O)[nH]c2ccccc2c1=O	> 4 mM (inactive)
O=C(NCc1ccccc1F)c1cccs1	> 4 mM (inactive)
O=C(O)/C=C/C(=O)Nc1ccccc1C(F)(F)F	> 4 mM (inactive)
O=C(Nc1ccon1)c1cc2c(s1)CCCC2	> 4 mM (inactive)
COC(=O)c1sc(N)nc1C	> 4 mM (inactive)
Cc1nc2sccn2c1C(=O)O	> 4 mM (inactive)
Cn1c(CN2CC(c3ccccc3)CC2=O)n[nH]c1=S (stereo not drawn)	> 4 mM (inactive)
CC(=O)O[C@@H]1CC2C(C)(C)[C@H](O)C=C[C@]2(C)C2CC[C@@]3(C)[C@H](c4ccoc4)OC(=O)C4OC43[C@@]21C (stereo partly drawn)	> 4 mM (inactive)
CNC(=O)C1=NCCCc2cc(OC)c(OC)cc21	> 4 mM (inactive)
Cn1ncc(CO)c1-c1ccccc1	> 4 mM (inactive)
Nc1cccc(S(=O)(=O)N2CCCC2)c1	> 4 mM (inactive)
CC(=O)Nc1ccc(CN2CCOCC2)cc1	> 4 mM (inactive)
Cc1nnc(SCc2cccs2)[nH]c1=O	> 4 mM (inactive)
Cc1occc1C(=O)Nc1nnc(-c2ccncc2)s1	> 4 mM (inactive)
CC(=O)c1ccc(NC(=O)c2ocnc2C)cc1	> 4 mM (inactive)
CC1CN(C(=O)CSc2ccccc2)CC(C)O1 (stereo not drawn)	inactive
Cc1ccc2c(c1)CCCN2C(=O)c1c(C)noc1C	> 4 mM (inactive)

SMILES	Kd
CSc1nc(O)cc(=O)[nH]1	> 4 mM (inactive)
O=C(c1cnsn1)N1CCN(c2ccccn2)CC1	> 4 mM (inactive)
CC1(C)O[C@H]2CC(=O)OC[C@]23[C@H]2CC[C@@]4(C)[C@H](c5ccoc5)OC(=O)[C@H]5O[C@]54[C@]2(C)C(=O)C[C@@H]13	> 4 mM (inactive)
CC(C)(O)[C@@H]1Cc2cc3ccc(=O)oc3cc2O1	> 4 mM (inactive)
Cc1cccc(NC(=O)Nc2cc(C)on2)c1	> 4 mM (inactive)
CCc1noc(C)c1C(=O)N1CCCC1	> 4 mM (inactive)
O=C(c1ccncc1)N1CCN(C(=O)c2ccco2)CC1	> 4 mM (inactive)
CO[C@H]1[C@@H](O)[C@@H](C)O[C@H](O[C@H]2CCC3(C)C4CCC5(C)[C@@H](C6=CC(=O)OC6)CC[C@]5(O)[C@@H]4CC[C@]3(O)C2)[C@@H]1O (stereo partly drawn)	> 4 mM (inactive)
Cc1nccc2c1[nH]c1ccccc12	> 4 mM (inactive)
CN1C(=O)C2CC=C(Cl)CC2C1=O (stereo not drawn)	> 4 mM (inactive)
COc1ccc(-c2cn[nH]c2N)c(OC)c1	> 4 mM (inactive)
CN(C)S(=O)(=O)c1ccccc1C#N	> 4 mM (inactive)
O=C(O)CNc1ncnc2nc[nH]c12	> 4 mM (inactive)
O=C(Oc1ccc(-c2nnco2)cc1)N1CCCCC1	> 4 mM (inactive)
O=C(CNC(=O)c1ccc(F)cc1)NC1=NCCS1	> 4 mM (inactive)
Nc1cccnc1Oc1ccc(F)cc1F	> 4 mM (inactive)
NC1=NC(=O)C(Cc2ccccc2)S1 (stereo not drawn)	> 4 mM (inactive)
Clc1ncc2[nH]cnc2n1	> 4 mM (inactive)
Cc1cc(C)c(OCC(=O)N2CCOCC2)c(C)c1	inactive
CC(C)c1ccccc1OCC(=O)N1CCOCC1	> 4 mM (inactive)
COc1c2ccoc2c(OC)c2oc(=O)ccc12	> 4 mM (inactive)
COc1ccc(CC(=O)c2ccc(O)cc2O)cc1	> 4 mM (inactive)

SMILES	Kd
COc1cnn(-c2ccccc2)c(=O)c1N(C)C	> 4 mM (inactive)
COc1c2ccccc2nc2occc12	> 4 mM (inactive)
Cc1nnc(Nc2cccnc2)[nH]c1=O	> 4 mM (inactive)
O=C(O)c1[nH]nc2c1COc1ccccc1-2	> 4 mM (inactive)
Cc1ccc(CN2CCNC(=O)C2CC(=O)O)o1 (stereo not drawn)	> 4 mM (inactive)
Cc1nnc(SCc2ccc(F)cc2)s1	> 4 mM (inactive)
O=C(O)C1CN2CCC1CC2 (stereo not drawn)	> 4 mM (inactive)
CSc1nc(NC(C)C)nc(N2CCOCC2)n1	> 4 mM (inactive)
O=C(Cc1c(F)cccc1Cl)Nc1ccon1	> 4 mM (inactive)
Cc1occc1C(=O)Nc1nnc(C(F)(F)F)s1	> 4 mM (inactive)
CC(=O)C1=C(O)C(=O)NC1c1ccccc1 (stereo not drawn)	> 4 mM (inactive)
CC(=O)c1ccc(NC(=S)N2CCC(O)CC2)cc1	> 4 mM (inactive)
O=C(Nc1ccon1)c1ccc(Cl)s1	> 4 mM (inactive)
O=C(Cc1cccs1)Nc1ccon1	> 4 mM (inactive)
N#Cc1cnc(N2CCCCC2)nc1N	> 4 mM (inactive)
CC(=O)O[C@H]1CCC2(C)C3=C(CCC2C1(C)C)[C@@]1(C)CC[C@@H](C(C)CCC=C(C)C)[C@]1(C)CC3 (stereo partly drawn)	> 4 mM (inactive)
CNC(=O)Nc1cccc(C(F)(F)F)c1	> 4 mM (inactive)
CC(=O)N=c1cccc(NC(C)=O)n1O	> 4 mM (inactive)
CCSc1nc(N)c(NC(=O)c2ccco2)c(=O)[nH]1	> 4 mM (inactive)
COc1ccc(-c2cc(=O)c3c(OC(C)=O)cc(OC(C)=O)cc3o2)cc1	> 4 mM (inactive)
CC(=O)NC(=S)Nc1nc2ccccc2n1C(C)=O	> 4 mM (inactive)
Cc1occc1C(=O)Nc1nnc(C2CCCCC2)s1	> 4 mM (inactive)

— PubChem BioAssay AID608 (Sanford-Burnham Center for Chemical Genomics, 2007)
